System: PYK-2
Assay: Tyrosine phosphorylation of PYK-2 in NIH3T3 cell lines that overexpress PYK-2
Format: cell-based, mouse
Conditions: NIH3T3 cells overexpressing PYK-2 / PYK-2-HA; TPA 6 μM, 15 min at 37° C.
Description: Stable cell lines of NIH3T3 that overexpress PYK2 were established by contransfection of PYK2 subcloned into pLSV together with pSV2neo utilizing lipofectamine reagent (GIBCO BRL). Following transfection the cells were grown in Dulbecco's modified Eagle's medium containing 10% fetal bovine serum and 1 mg/ml G418. Transient transfections into 293 cells were performed by using the calcium phosphate technique (*).
The PYK-2 cDNA cloned in PLSV was cotransfected with pSV2neo into PC12 cells and NIH3T3 in order to establish stable cell lines. G418 resistant colonies were screened by immunoprecipitating and immunoblotting.
NIH3T3 cell lines were established that overexpress the PYK-2 and the PYK-2-HA protein. […] The level of phosphorylation is not so high.

CCCCCCCCCCCCCC(=O)O[C@@H]1[C@@H](C)[C@@]2(O)[C@@H](C=C(CO)C[C@]3(O)C(=O)C(C)=C[C@@H]23)[C@@H]2C(C)(C)[C@]12OC(C)=O [PMA, phorbol 12-myristate 13-acetate]
tyrosine phosphorylation of PYK-2 in response to the agent: stronger effect
